Data reported in patent publication US8952024B2, “Herbicidal pyrimidone derivatives” (E I du Pont de Nemours and Company, priority 2009, dated 2015).

What was measured:
Type in all cases: in vivo
[1] = test system: Surinam grass (Brachiaria decumbens); assay: Test B pre-/postemergence plant response
From the text: (§1) Seeds of plant species selected from blackgrass (Alopecurus myosuroides), downy bromegrass (Bromus tectorum), green foxtail (Setaria viridis), Italian ryegrass (Lolium multiflorum), wheat (Triticum aestivum), wild oat (Avena fatua), deadnettle (henbit deadnettle, Lamium amplexicaule), galium (catchweed bedstraw, Galium aparine), bermudagrass (Cynodon dactylon), Surinam grass (Brachiaria decumbens), cocklebur (Xanthium strumarium), corn (Zea mays), large crabgrass (Digitaria sanguinalis), woolly cupgrass (Eriochloa villosa), giant foxtail (Setaria faberii), goosegrass (Eleusine indica), johnsongrass (Sorghum halepense), kochia (Kochia scoparia), lambsquarters (Chenopodium album), morningglory (Ipomoea coccinea), nightshade (eastern black nightshade, Solanum ptycanthum), yellow nutsedge (Cyperus esculentus), pigweed (Amaranthus retroflexus), ragweed (common ragweed, Ambrosia elatior), Russian thistle (Salsola kali), soybean (Glycine max), sunflower (common oilseed sunflower, Helianthus annuus) and velvetleaf (Abutilon theophrasti) were planted into a blend of loam soil and sand and treated preemergence with test compounds formulated in a non-phytotoxic solvent mixture which included a surfactant.
(§2) At the same time, plants selected from these crop and weed species and also winter barley (Hordeum vulgare), canarygrass (Phalaris minor), chickweed (Stellaria media) and windgrass (Apera spica-venti) were planted in pots containing Redi-Earth® planting medium (Scotts Company, 14111 Scottslawn Road, Marysville, Ohio 43041) comprising spaghnum peat moss, vermiculite, wetting agent and starter nutrients and treated with postemergence applications of some of the test chemicals formulated in the same manner. Plants ranged in height from 2 to 18 cm (1- to 4-leaf stage) for postemergence treatments.
(§3) Treated plants and controls were maintained in a greenhouse for 13 to 15 days, after which time all treated plants were visually evaluated and compared to controls. Plant response ratings, summarized in Table B, are based on a scale of 0 to 100 where 0 is no effect and 100 is complete control. A dash (-) response means no test result.

[2] = test system: Italian ryegrass (Lolium multiflorum); assay: Test B pre-/postemergence plant response
From the text: as §1, §2, §3

corn (Zea mays) = assay: Test B pre-/postemergence plant response
From the text: as §1, §2, §3

wild oat (Avena fatua) = assay: Test B pre-/postemergence plant response
From the text: as §1, §2, §3

[3] = test system: pigweed (Amaranthus retroflexus); assay: Test B pre-/postemergence plant response
From the text: as §1, §2, §3

[4] = test system: cocklebur (Xanthium strumarium); assay: Test B pre-/postemergence plant response; conditions: Preemergence
From the text: as §1, §2, §3

[5] = test system: morningglory (Ipomoea coccinea); assay: Test B pre-/postemergence plant response
From the text: as §1, §2, §3

[6] = test system: blackgrass (Alopecurus myosuroides); assay: Test B pre-/postemergence plant response
From the text: as §1, §2, §3

[7] = test system: giant foxtail (Setaria faberii); assay: Test B pre-/postemergence plant response
From the text: as §1, §2, §3

[8] = test system: downy bromegrass (Bromus tectorum); assay: Test B pre-/postemergence plant response
From the text: as §1, §2, §3

[9] = test system: canarygrass (Phalaris minor); assay: Test B postemergence plant response; conditions: Postemergence
Summary of the method: (§4)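 Plants grown in peat/vermiculite medium were sprayed postemergence at 2–18 cm height (1- to 4-leaf stage). After 13–15 days in the greenhouse, response was rated visually against untreated controls on a 0–100 scale (0 no effect, 100 complete control).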

[10] = test system: chickweed (Stellaria media); assay: Test B postemergence plant response; conditions: Postemergence
Summary of the method: as §4

[11] = test system: windgrass (Apera spica-venti); assay: Test B postemergence plant response; conditions: Postemergence
Summary of the method: as §4

[12] = Postemergence, 31 g ai/ha, 0 to 100 scale (0 no effect, 100 complete control)
[13] = Postemergence, 62 g ai/ha, scale 0 to 100 (0 no effect, 100 complete control)
[14] = Postemergence, 125 g ai/ha, scale 0 (no effect) to 100 (complete control), 13 to 15 days
[15] = Postemergence, 250 g ai/ha, scale 0 to 100 (0 no effect, 100 complete control), 13 to 15 days
[16] = Preemergence, 31 g ai/ha, scale 0 to 100 (0 no effect, 100 complete control)
[17] = Preemergence, 62 g ai/ha, scale 0 to 100 (0 no effect, 100 complete control)
[18] = Preemergence, 125 g ai/ha, scale 0 to 100, 0 no effect, 100 complete control
[19] = Preemergence, 250 g ai/ha, 0 to 100 scale
[20] = 62 g ai/ha, scale 0 to 100 (0 no effect, 100 complete control)
[21] = 31 g ai/ha, 0 to 100 scale (0 no effect, 100 complete control)
[22] = 125 g ai/ha, scale 0 (no effect) to 100 (complete control), 13 to 15 days
[23] = 250 g ai/ha, scale 0 to 100 (0 no effect, 100 complete control), 13 to 15 days

CCCCn1c(-c2cc(F)cc(F)c2)ncc(C(=O)C2=C(O)C3CCC(C3)C2=O)c1=O (stereo not shown) [Compound 245]
5: Plant response rating, Corn (corn (Zea mays); [17]) | Plant response rating, Blackgrass [6, 17]
85: Plant response rating, Ryegrass, Italian [2, 15] | Plant response rating, Oat, Wild (wild oat (Avena fatua); [13]) | Plant response rating, Oat, Wild (wild oat (Avena fatua); [14]) | Plant response rating, Chickweed [10, 20]
98: Plant response rating, Pigweed [3, 13] | Plant response rating, Cocklebur ([4]; 125 g ai/ha, scale 0 to 100, 0 no effect, 100 complete control) | Plant response rating, Foxtail, Giant [7, 12] | Plant response rating, Windgrass [11, 23]
70: Plant response rating, Ryegrass, Italian [2, 14] | Plant response rating, Oat, Wild (wild oat (Avena fatua); [12]) | Plant response rating, Blackgrass [6, 13] | Plant response rating, Windgrass [11, 20]
90: Plant response rating, Morningglory [5, 12] | Plant response rating, Foxtail, Giant [7, 18]
100: Plant response rating, Surinam Grass [1, 12] | Plant response rating, Surinam Grass [1, 13] | Plant response rating, Surinam Grass [1, 14] | Plant response rating, Surinam Grass [1, 15] | Plant response rating, Surinam Grass [1, 17] | Plant response rating, Surinam Grass [1, 18] | Surinam Grass plant response rating [1, 19] | Plant response rating, Corn (corn (Zea mays); [12]) | Plant response rating, Corn (corn (Zea mays); [13]) | Plant response rating, Corn (corn (Zea mays); [14]) | Plant response rating, Corn (corn (Zea mays); [15]) | Plant response rating, Oat, Wild (wild oat (Avena fatua); [15]) | Plant response rating, Pigweed [3, 14] | Plant response rating, Pigweed [3, 15] | Plant response rating, Pigweed [3, 18] | Pigweed plant response rating [3, 19] | Cocklebur plant response rating ([4]; 250 g ai/ha, 0 to 100 scale) | Plant response rating, Morningglory [5, 13] | Plant response rating, Morningglory [5, 14] | Plant response rating, Morningglory [5, 15] | Morningglory plant response rating [5, 19] | Plant response rating, Foxtail, Giant [7, 13] | Plant response rating, Foxtail, Giant [7, 14] | Plant response rating, Foxtail, Giant [7, 15] | Foxtail, Giant plant response rating [7, 19] | Plant response rating, Canarygrass [9, 22] | Plant response rating, Canarygrass [9, 23] | Plant response rating, Chickweed [10, 22] | Plant response rating, Chickweed [10, 23]
30: Plant response rating, Oat, Wild (wild oat (Avena fatua); [18]) | Oat, Wild plant response rating (wild oat (Avena fatua); [19]) | Plant response rating, Blackgrass [6, 18]
80: Plant response rating, Pigweed [3, 12] | Plant response rating, Pigweed [3, 16] | Plant response rating, Blackgrass [6, 14] | Plant response rating, Blackgrass [6, 15] | Plant response rating, Canarygrass [9, 21] | Plant response rating, Chickweed [10, 21]
15: Bromegrass, Downy plant response rating [8, 19]
25: Plant response rating, Corn (corn (Zea mays); [18])
45: Blackgrass plant response rating [6, 19]
60: Plant response rating, Bromegrass, Downy [8, 12]
40: Plant response rating, Ryegrass, Italian [2, 12] | Ryegrass, Italian plant response rating [2, 19] | Plant response rating, Blackgrass [6, 12]
50: Plant response rating, Ryegrass, Italian [2, 13]
10: Plant response rating, Foxtail, Giant [7, 17]
95: Plant response rating, Surinam Grass [1, 16] | Plant response rating, Pigweed [3, 17] | Plant response rating, Bromegrass, Downy [8, 13] | Plant response rating, Bromegrass, Downy [8, 14] | Plant response rating, Bromegrass, Downy [8, 15] | Plant response rating, Canarygrass [9, 20] | Plant response rating, Windgrass [11, 22]
0: Plant response rating, Ryegrass, Italian [2, 16] | Plant response rating, Ryegrass, Italian [2, 17] | Plant response rating, Ryegrass, Italian [2, 18] | Plant response rating, Corn (corn (Zea mays); [16]) | Plant response rating, Oat, Wild (wild oat (Avena fatua); [16]) | Plant response rating, Oat, Wild (wild oat (Avena fatua); [17]) | Plant response rating, Cocklebur ([4]; 31 g ai/ha, scale 0 to 100 (0 no effect, 100 complete control)) | Plant response rating, Cocklebur [4, 20] | Plant response rating, Morningglory [5, 16] | Plant response rating, Morningglory [5, 17] | Plant response rating, Blackgrass [6, 16] | Plant response rating, Foxtail, Giant [7, 16] | Plant response rating, Bromegrass, Downy [8, 16] | Plant response rating, Bromegrass, Downy [8, 17] | Plant response rating, Bromegrass, Downy [8, 18]
65: Corn plant response rating (corn (Zea mays); [19]) | Plant response rating, Morningglory [5, 18] | Plant response rating, Windgrass [11, 21]
